*1 amine or outer side, *2 acyl side, *3 side chain or, on linkers, in order; H or OH if unused. Where a SMILES comes first, the peptide text is derived from it. Where no end group is shown, it is not given here. [ ]: non-standard residue; d: D form. sY = N[C@@H](Cc1ccc(OS(=O)(=O)O)cc1)C(=O)O; Asu = N[C@@H](CCCCCC(=O)O)C(=O)O; Suc = O=C(CCC(=O)[*:2])[*:1]; Ava = NCCCCC(=O)O

The target of test [1] is T1, thrombin (Homo sapiens, UniProt P00734). Briefly: anti-thrombin activity; clotting assay (coagulation time with fibrinogen as substrate). In kind it is biochemical. The arrangement: 100 μl of human-thrombin prepared at 10 NIH units/ml in aforesaid buffer. The following applies: for IC50: concentration corresponding to 50 thrombin units, human-thrombin 10 NIH units/ml, human-fibrinogen 6 mg/ml, read-out: 50% Inhibition Concentration (converted); for Potency: calculated using the definition that HV-1 (54-65) potency is 1. On the procedure:
Measurement of anti-thrombin activity was done by looking at anti-coagulant activity as an index using fibrinogen as the substrate. That is, the compounds were dossolved in 200 μl of 0.1 mM Tris-HCl buffer (pH7.5) containing 0.1% polyethyleneglycol-6000, 100 μl of human-thrombin prepared at 10 NIH units/ml in aforesaid buffer, were added 200 μl of human-fibrinogen (Sigma) prepared at 6 mg/ml in aforesaid tris-hydrochloride buffer were added, and the coagulation time of the reaction mixtures were measured. For measuring of coagulation times, coagulation time analyzer (Amelung KC10A) was used. Obtained values were converted into units by using a previously prepared thrombin standard curve. Graphs were prepared by plotting the converted values on the vertical axis, and the concentrations of the compounds on the horizontal axis. In the graphs, the thrombin unit was defined as 100 at a compound concentration of 0. The concentration of compounds corresponding to 50 units were defined as 50% inhibitory concentrations of compounds.

Test [2] addresses T1, thrombin. Briefly: anti-thrombin activity; chromogenic assay (Chromozym TH hydrolysis, apparent dissociation constant Ki'). The following applies: for Ki: apparent dissociation constant, 350 pM human-thrombin, 100 μM Chromozym TH, 37° C.; for Potency: relative to hirudin HV-1 = 1. The arrangement: 100 μl of human-thrombin prepared at 10 NIH units/ml in aforesaid buffer. The format is biochemical. Here is the method:
Anti-thrombin activities were measured by measuring the degree of inhibition of thrombin's hydrolytic activity on synthetic substrate Chromozym TH (Tocylglycil-prolylarginine-4-nitroanilideacetate). This reaction was carried out as follows. […] Here, the molar concentration of aforementioned human-thrombin was determined by the method of active site titration [G. W. Jameson et al., Biochem. J., 131, p107-117 (1973)] using 4-methylunberifenyl-p-guanidinobenzoate as substrate. After the pre-incubation, Chromozym TH (product of Boehringer-Mannheim) was added to a final concentration of 100 μM, and released p-nitroanilide was measured at the wave length of 405 nm, and the initial velocity of the hydrolytic reactions were measured for each of the abovementioned hirudins at various concentrations. From this initial velocity of the hydrolytic reactions, the apparent dissociation constants Ki' were calculated by the method of S. R. Stone et al. [Biochemistry, 25, p4622-4628 (1986)].

As for `CC[C@H](C)[C@H](NC(=O)[C@@H]1CCCN1C(=O)[C@H](CCC(=O)O)NC(=O)[C@H](Cc1ccccc1)NC(=O)CCC(=O)O)C(=O)N1CCC[C@H]1C(=O)N[C@@H](CCC(=O)O)C(=O)N[C@@H](Cc1ccc(OS(=O)(=O)O)cc1)C(=O)N[C@@H](Cc1ccc(OS(=O)(=O)O)cc1)C(=O)NCCCCC(=O)O` [Sulfated form of (L), Suc--Phe--Glu--Pro--Ile--Pro--Glu--Tyr(SO3 H)--Tyr(SO3 H)--NH(CH2)4 COOH] (Suc-FEPIPE[sY][sY][Ava]-OH), the IC50 at thrombin [1] was 2220 nM.

As for `CC[C@H](C)[C@H](NC(=O)[C@@H]1CCCN1C(=O)[C@H](CCC(=O)O)NC(=O)[C@H](Cc1ccccc1)NC(=O)CCC(=O)O)C(=O)N1CCC[C@H]1C(=O)N[C@@H](CCC(=O)O)C(=O)N[C@@H](Cc1ccc(OS(=O)(=O)O)cc1)C(=O)N[C@@H](Cc1ccc(OS(=O)(=O)O)cc1)C(=O)N[C@@H](CC(C)C)C(=O)O` [Sulfated form of (Q), Suc--Phe--Glu--Pro--Ile--Pro--Glu--Tyr (SO3 H)--Tyr(SO3 H)--Leu--OH] (Suc-FEPIPE[sY][sY]L-OH), on thrombin [1], the Potency was 1.85 and the IC50 was 2490 nM. For `CC[C@H](C)[C@H](NC(=O)[C@@H]1CCCN1C(=O)[C@H](CCC(=O)O)NC(=O)[C@H](Cc1ccccc1)NC(=O)CCC(=O)O)C(=O)N1CCC[C@H]1C(=O)N[C@@H](CCC(=O)O)C(=O)N[C@@H](Cc1ccc(OS(=O)(=O)O)cc1)C(=O)N[C@@H](Cc1ccc(OS(=O)(=O)O)cc1)C(=O)N[C@@H](CC(C)C)C(=O)N[C@H](CCC(=O)O)C(=O)O` [Sulfated form of (T), Suc--Phe--Glu--Pro--Ile--Pro--Glu--Tyr(SO3 H)--Tyr(SO3 H)--Leu--(D)Glu--OH] (Suc-FEPIPE[sY][sY]L[dE]-OH), in that order: 8.32 and 509 nM.

Regarding `CC[C@H](C)[C@H](NC(=O)[C@@H]1CCCN1C(=O)[C@H](CCC(=O)O)NC(=O)[C@H](Cc1ccccc1)NC(=O)CCC(=O)O)C(=O)N1CCC[C@H]1C(=O)N[C@@H](CCC(=O)O)C(=O)N[C@@H](Cc1ccc(OS(=O)(=O)O)cc1)C(=O)N[C@@H](Cc1ccc(OS(=O)(=O)O)cc1)C(=O)N[C@@H](CC(C)C)C(=O)N[C@@H](CCCCCC(N)=O)C(N)=O` [Sulfated form of (X), Suc--Phe--Glu--Pro--Ile--Pro--Glu--Tyr(SO2 H)--Tyr(SO3 H)--Leu--(L)Asu(NH2)NH2] (Suc-FEPIPE[sY][sY]L[Asu](NH2)-NH2), the IC50 on thrombin [1] was 2000 nM. Same read-out and setting: the value for GDFEEIPEYYLQ [(A)] was 9780 nM.

As to GDFEEIPYYYLQ [(B)], at thrombin [1], the IC50 was 9000 nM. “Val--Val--Tyr--Thr--Asp--Cys--Thr--Glu--Ser--Gly--Gln--Asn--Leu--Cys--Leu--Cys--Glu--Gly--Ser--Asn--Val--Cys--Gly--Gln--Gly--Asn--Lys--Cys--Ile--Leu--Gly--Ser--Asp--Gly--Glu--Lys--Asn--Gln--Cys--Val--Thr--Gly--Glu--Gly--Thr--Pro--Lys--Pro--Gln--Ser--His--Asn--Asp--Gly--Asp--Phe--Glu--Glu--Ile--Pro--Tyr--Tyr(SO3 H)--Tyr(SO3 H)--Leu--Gln [Sulfated form of hirudin HV-17 peak 1]”: on thrombin [2], the Ki turned out to be 0.0028 nM and the Potency was determined as 2.3.

Consider “Val--Val--Tyr--Thr--Asp--Cys--Thr--Glu--Ser--Gly--Gln--Asn--Leu--Cys--Leu--Cys--Glu--Gly--Ser--Asn--Val--Cys--Gly--Gln--Gly--Asn--Lys--Cys--Ile--Leu--Gly--Ser--Asp--Gly--Glu--Lys--Asn--Gln--Cys--Val--Thr--Gly--Glu--Gly--Thr--Pro--Lys--Pro--Gln--Ser--His--Asn--Asp--Gly--Asp--Phe--Glu--Glu--Ile--Pro--Tyr--Tyr(SO3 H)--Tyr--Leu--Gln [Sulfated form of hirudin HV-17 peak 3]”, for which, at thrombin [2], the Ki turned out to be 0.0059 nM and the Potency was determined as 1.1.

The record behind these values is patent US5880258A (dated 1999).
